Data from the NIST ThermoML archive (doi:10.1007/s10765-017-2323-6).
± gives the expanded uncertainty stated by the source.

Key:
[1] = Crystal; DTA
[2] = Molar enthalpy of transition or fusion; conditions: Crystal; DSC

Compound: CC(=O)CCc1ccc(O)cc1 [4-(4-hydroxyphenyl)butan-2-one]
- Normal melting temperature [1]: 82 ± 0.6 °C
- Molar enthalpy of transition or fusion [2]: 5.9 ± 0.143 kcal/mol
